Key:
[1] = system: pulmonary arterial smooth muscle cells (PASMC); assay: PASMC proliferation (BrdU incorporation); assay type: cell-based; conditions: AOL 10, 20, 60 or 100 μM, 24 hours
Protocol: Detection of pulmonary arterial smooth muscle cells (PASMC) proliferation was assayed by using a colorimetric immunoassay kit (Roche Applied Science, Indianapolis, Ind., USA) based on the measurement of 5-bromo-2′-deoxy-uridine (BrdU) incorporation during DNA synthesis.
Isolated PASMC were seeded in culture medium supplemented with 10% fetal calf serum (FCS) at a density of 5·10^3 cells/well/100 μL in a 96-well culture plate. The culture plate was placed in a humidified incubator at 37° C. under 5% CO2 in air. After 48 hours, cells were subjected to 48 hours of growth arrest in serum-free culture medium supplemented with 1% insulin-transferrin-selenium. At the end of this period, PASMC were incubated for 24 hours in culture medium containing either: • 0.2% FCS (control condition); • 0.2% FCS+10, 20, 60 or 100 μM AOL; • 0.2% FCS+100 μM 5HT (serotonin); • 0.2% FCS+100 μM 5HT+10, 20, 60 or 100 μM AOL; • 10% FCS; • 10% FCS+10, 20, 60 or 100 μM AOL.
Each condition was tested in triplicate. 10 μL of BrdU (100 μM) was then added to the media and cells were incubated for an additional 2 hours at 37° C. […] Newly synthesized BrdU DNA was determined by measuring absorbance of the samples in an ELISA reader (Spectrostar/nano; BMG Labtech, Champigny-sur-Marne, France) at a wavelength of 380 nm with a reference wavelength of 490 nm.

site IIIQO = molecular target: T1, site IIIQO (Rattus norvegicus, UniProt P00159+P20788); assay: Mitochondrial ROS/H2O2 production (Amplex Red/HRP) after rotenone, antimycin A, myxothiazol; assay type: biochemical; conditions: AOL 5 to 80 μM
T1 construct: from tissue; host or cells: mitochondria isolated from rat heart
T1 sequence (P00159 whole entry): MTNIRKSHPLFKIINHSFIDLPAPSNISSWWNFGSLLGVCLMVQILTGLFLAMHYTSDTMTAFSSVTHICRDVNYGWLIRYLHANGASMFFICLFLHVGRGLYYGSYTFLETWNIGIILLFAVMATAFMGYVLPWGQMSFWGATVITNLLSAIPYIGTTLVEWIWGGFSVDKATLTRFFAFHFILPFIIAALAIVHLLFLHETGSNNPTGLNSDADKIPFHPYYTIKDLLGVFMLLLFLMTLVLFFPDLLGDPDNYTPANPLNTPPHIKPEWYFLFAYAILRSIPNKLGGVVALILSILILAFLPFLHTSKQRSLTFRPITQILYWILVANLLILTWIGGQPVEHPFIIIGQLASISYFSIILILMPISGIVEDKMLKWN
T1 sequence (P20788 79-274 limits assumed): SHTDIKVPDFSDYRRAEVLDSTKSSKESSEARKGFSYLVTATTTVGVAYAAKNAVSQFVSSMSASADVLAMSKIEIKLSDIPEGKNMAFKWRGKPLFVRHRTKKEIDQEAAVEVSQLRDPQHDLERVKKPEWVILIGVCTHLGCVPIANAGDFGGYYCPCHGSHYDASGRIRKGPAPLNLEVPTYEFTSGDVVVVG
T1 sequence (P20788 1-78 partner limits assumed): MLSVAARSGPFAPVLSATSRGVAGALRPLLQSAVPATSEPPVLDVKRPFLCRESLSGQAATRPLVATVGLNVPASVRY
T1 sequence (Q68FY0 35-480 partner): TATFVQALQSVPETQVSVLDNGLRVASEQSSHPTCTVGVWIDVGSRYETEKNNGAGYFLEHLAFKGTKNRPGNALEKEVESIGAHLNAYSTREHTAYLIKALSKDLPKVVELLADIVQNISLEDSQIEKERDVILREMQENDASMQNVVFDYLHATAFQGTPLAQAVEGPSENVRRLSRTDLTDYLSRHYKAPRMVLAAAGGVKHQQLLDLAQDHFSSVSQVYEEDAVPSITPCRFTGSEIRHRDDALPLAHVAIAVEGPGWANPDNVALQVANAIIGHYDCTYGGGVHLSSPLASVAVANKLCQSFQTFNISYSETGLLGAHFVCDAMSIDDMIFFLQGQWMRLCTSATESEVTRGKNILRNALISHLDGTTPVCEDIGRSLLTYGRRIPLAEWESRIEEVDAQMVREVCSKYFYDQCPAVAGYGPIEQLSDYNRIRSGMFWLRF
T1 sequence (P32551 15-452 partner): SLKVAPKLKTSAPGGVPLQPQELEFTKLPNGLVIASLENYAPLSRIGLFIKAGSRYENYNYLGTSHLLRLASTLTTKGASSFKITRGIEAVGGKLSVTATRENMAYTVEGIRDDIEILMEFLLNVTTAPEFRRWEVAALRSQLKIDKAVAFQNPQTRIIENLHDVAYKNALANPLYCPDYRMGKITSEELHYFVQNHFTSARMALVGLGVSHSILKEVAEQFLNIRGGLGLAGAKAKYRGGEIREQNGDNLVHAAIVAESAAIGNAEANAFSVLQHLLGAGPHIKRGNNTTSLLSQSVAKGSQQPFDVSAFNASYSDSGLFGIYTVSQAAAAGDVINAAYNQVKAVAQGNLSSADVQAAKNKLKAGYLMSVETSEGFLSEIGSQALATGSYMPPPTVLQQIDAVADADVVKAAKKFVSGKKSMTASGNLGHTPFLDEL
Protocol: Rates of ROS/H2O2 production from heart mitochondria were assessed through the oxidation of the colorless, non-fluorescent indicator Amplex Red in the presence of exogenous horseradish peroxidase (HRP, EC 1.11.1.7, Sigma). H2O2 reacts with Amplex Red in a 1:1 stoichiometry, yielding the fluorescent compound resorufin (excitation: 560 nm; emission: 585 nm) which is stable once formed. Fluorescence was measured continuously with a spectro-fluorometer equipped with temperature control and stirring (SAFAS Xenius, Monaco). Isolated mitochondria (0.1 mg/mL) were incubated in the same experimental buffer than previously, supplemented with 15 μM Amplex Red and 10 μg/mL HRP. Glutamate (5 mM)/malate (2.5 mM) together with succinate (5 mM) were used as complex I and complex II substrates, respectively. Experiments were conducted under non-phosphorylating conditions in the presence of 15 μM atractyloside, i.e., under state IV conditions where mitochondrial membrane is maximal. […]
Rates of ROS/H2O2 production from heart mitochondria were assessed through the oxidation of the colorless, non-fluorescent indicator Amplex Red in the presence of exogenous horseradish peroxidase (HRP, EC 1.11.1.7, Sigma). […] Fluorescence was measured continuously with a spectro-fluorometer equipped with temperature control and stirring (SAFAS Xenius, Monaco). […]

SMILES: COc1ccc(-c2cc(=S)ss2)cc1 [AOL, 5-(4-methoxyphenyl)-3H-1,2-dithiole-3-thione]
- PASMC proliferation in presence of 0.2% FCS and 100 μM 5HT [1]: successfully inhibited the proliferation
- PASMC proliferation induced by 10% FCS [1]: successfully inhibited the proliferation
- effect on ROS/H2O2 production under the other conditions (site IIIQO): no statistical differences were observed

Source: US11484529B2, “Desmethylanethole trithione derivatives for the treatment of diseases linked to mitochondrial reactive oxygen species (ROS) production” (OP2 Drugs, priority 2017, dated 2022)
